Experimental data published in the supplement of paper PMC10307832.

Experiments:
Assay in all cases: relative viability (nuclei count vs DMSO), 5 days (fraction); higher = more cells survive
[1] = compound: CC1=CC(=CC=C1)NC2=NC(=CS2)C3=CC=NC=C3 + O=C(c1cc(Cc2n[nH]c(=O)c3ccccc23)ccc1F)N1CCN(C(=O)C2CC2)CC1 [Olaparib] (partner 8 µM)
Procedure, shortened: (§1)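 Each reported value is a median over duplicate plates. It expresses relative viability: treated-well nuclei count divided by vehicle-well nuclei count. Lung cancer cell lines in 1536-well plates were dosed by pin tool a day after seeding, alone with one drug or with a fixed anchor-drug dose plus five library-drug doses (not always all listed) in √10 steps, and nuclei were counted after 5 days.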

Masitinib + Crizotinib = compound: Cc1ccc(NC(=O)c2ccc(CN3CCN(C)CC3)cc2)cc1Nc1nc(-c2cccnc2)cs1 [Masitinib] + C[C@@H](Oc1cc(-c2cnn(C3CCNCC3)c2)cnc1N)c1c(Cl)ccc(F)c1Cl [Crizotinib] (partner 1 µM)
Procedure, shortened: as §1

[2] = compound: CC1=CC(=CC=C1)NC2=NC(=CS2)C3=CC=NC=C3 + NC(=O)Nc1cc(-c2cccc(F)c2)sc1C(=O)N[C@H]1CCCNC1 [AZD7762] (partner 0.2 µM)
Procedure, shortened: as §1

Masitinib + Foretinib = compound: Cc1ccc(NC(=O)c2ccc(CN3CCN(C)CC3)cc2)cc1Nc1nc(-c2cccnc2)cs1 [Masitinib] + COc1cc2c(Oc3ccc(NC(=O)C4(C(=O)Nc5ccc(F)cc5)CC4)cc3F)ccnc2cc1OCCCN1CCOCC1 [Foretinib] (partner 0.25 µM)
Procedure, shortened: as §1

Cell Line	relative viability ([1]; first compound 0.08 µM)	relative viability ([1]; first compound 0.8 µM)	relative viability ([1]; first compound 8 µM)	relative viability (Masitinib + Crizotinib; first compound 0.01 µM)	relative viability (Masitinib + Crizotinib; first compound 0.03162 µM)	relative viability (Masitinib + Crizotinib; first compound 0.1 µM)	relative viability (Masitinib + Crizotinib; first compound 0.3162 µM)	relative viability (Masitinib + Crizotinib; first compound 1 µM)	relative viability ([2]; first compound 0.08 µM)	relative viability ([2]; first compound 0.8 µM)	relative viability ([2]; first compound 8 µM)	relative viability (Masitinib + Foretinib; first compound 0.01 µM)	relative viability (Masitinib + Foretinib; first compound 0.03162 µM)	relative viability (Masitinib + Foretinib; first compound 0.1 µM)	relative viability (Masitinib + Foretinib; first compound 0.3162 µM)	relative viability (Masitinib + Foretinib; first compound 1 µM)	relative viability ([1]; first compound 0.253 µM)	relative viability ([1]; first compound 2.53 µM)	relative viability ([2]; first compound 0.253 µM)	relative viability ([2]; first compound 2.53 µM)
NCI-H727	0.67	0.679	0.743	0.824	0.844	0.925	0.778	0.91	0.669	0.745	0.507	0.673	1.02	1	0.891	0.85				
NCI-H838	0.567	0.714	0.521	0.95	0.71	0.828	0.651	0.818	0.812	0.85	0.829	0.926	0.837	1.18	0.813	1.05	0.545	0.685	0.924	0.928
NCI-H1355	0.579	0.444	0.407	1.06	1.1	1.07	0.746	1.01	0.657	0.513	0.558	0.914	0.797	1.04	0.758	0.968	0.531	0.385	0.654	0.653
NCI-H1437	0.628	0.525	0.371	0.896	0.875	0.923	1.04	0.94	1.07	1.1	1.11	1.26	1.26	1.3	1.13	1.27	0.585	0.478	1.11	1.12
NCI-H1651	0.185	0.166	0.186	0.802	0.89	0.819	0.839	0.839	0.5	0.416	0.366	0.688	0.755	0.862	0.789	0.94	0.179	0.177	0.473	0.426
NCI-H1666	0.677	0.737	0.824	0.91	1.17	1.03	0.744	0.832	0.766	0.607	0.68		0.889	0.91	1.03	1	0.771	0.766	0.715	0.548
NCI-H1703	0.313	0.359	0.447	0.483	0.758	0.293	0.492	0.139	0.121	0.14	0.112	0.315	0.308	0.287	0.342	0.328	0.33	0.585	0.127	0.148
NCI-H1734	0.552	0.57	0.539	0.668	0.777	0.862	0.503	0.615	0.559	0.528	0.558	0.922	0.914	0.898	1.05	0.811	0.584	0.63	0.554	0.647
NCI-H1755	0.796	0.769	0.533		0.804	0.866	0.816	0.828	0.491	0.46	0.376		0.927	0.975	0.897	0.828	0.829	0.598	0.418	0.486
NCI-H1915	0.271	0.25	0.23		0.995	1.01	1.03	1.08	0.755	0.689	0.667		1.13		1.1	1.11	0.263	0.243	0.665	0.686
NCI-H1944	0.377	0.377	0.377		1.15	0.59	0.988	1.1	0.401	0.706	0.47		0.832		0.793	0.85	0.379	0.327	0.552	0.527
NCI-H1975	0.747	0.458	0.235	0.948	0.88	1.06	0.872	0.926	0.579	0.591	0.439	1.02	0.96	0.924		0.998	0.442	0.395	0.532	0.462
NCI-H1993	0.945	0.923	0.898	0.942		0.883	0.755	0.718	0.688	0.641	0.749	0.864	0.862	0.828	0.638	0.742	1.01	1.11	0.706	0.682
NCI-H2085	0.844	0.757	0.587	0.784	0.775	0.868	0.985	0.853	0.904	0.847	0.575	0.851	0.91	0.919	1.23	0.878	0.784	0.769	1.01	0.993
NCI-H2087	0.596	0.607	0.462	0.669	0.913	0.899	0.891	0.951	1.41	1.14	1.17	1.26	0.907	1.18	1.11	1.17	0.503	0.448	1.29	1.43
NCI-H2126	0.894	0.869	0.887	1.02	1.09	1.05	1.07	0.993	0.967	1.06	0.981	1.08	0.97	1.08	1.35	1.02	0.898	0.88	1.09	0.95
NCI-H2170	0.589	0.473	0.425	1.38	1.18	1.37	1.3	1.11	0.776	0.706	0.521	1.05	1.04	1.16	1.02	0.994	0.631	0.531	0.829	0.749
